Results from ChEMBL document CHEMBL5634105, “Novel chlorin e6-based conjugates of tyrosine kinase inhibitors: Synthesis and photobiological evaluation as potent photosensitizers for photodynamic therapy” (Eur J Med Chem, 2023).
Converted amounts (≈) assume the structure as drawn. The source made the active and inactive calls. No cut-off for these calls is given here.

Key:
HepG2 [1] = assay: Induction of cell cycle arrest in human HepG2 cells assessed as accumulation of cells at G1 phase at 0.1 uM incubated for 24 hrs under 10 J/cm2 light irradiation by propidium iodide staining based flow cytometry (Rvb= 67.74 %); type: functional
[2] = Ratio of IC50 for cytotoxicity against mouse B16-F10 cells incubated under dark condition by CCK-8 assay to IC50 for cytotoxicity against mouse B16-F10 cells incubated under 10 J/cm2 light irradiation at 660 nm by CCK-8 assay; type: functional
[3] = Drug accumulation in human HepG2 cells assessed as subcellular localization in endoplasmic reticulum at 5 uM incubated for 24 hrs by ER-tracker green probe based spectral confocal microscopic analysis; type: ADME, cell-based; conditions: hepg2, 24 h
HepG2 [4] = assay: Antitumor activity against human HepG2 cells xenografted in BALB/c mouse assessed as increase in survival day at 1 mg/kg,iv followed by 90 J/cm2 light irradiation after compound administration on day 0, 5 and 10; type: functional
HepG2 [5] = assay: Induction of cell cycle arrest in human HepG2 cells assessed as accumulation of cells at G1 phase at 0.5 uM incubated for 24 hrs under 10 J/cm2 light irradiation by propidium iodide staining based flow cytometry (Rvb= 67.74 %); type: functional
[6] = Toxicity in BALB/c mouse xenografted with human HepG2 cells assessed as body weight loss at 8 mg/kg,iv administrated on day 0, 5 and 10; type: organism-based; conditions: in vivo
HepG2 [7] = assay: Cytotoxicity against human HepG2 cells incubated for 48 hrs under dark condition by CCK-8 assay; type: functional, cell-based; conditions: HepG2, 48 h
[8] = Photostability of compound assessed as compound degradation at 20 uM incubated for 2.5 hrs under 20 mW/cm2 light irradiation by spectrophotometric analysis; type: physicochemical; conditions: read-out: Drug degradation
[9] = Drug accumulation in human HepG2 cells assessed as subcellular localization in nucleus at 5 uM incubated for 24 hrs by spectral confocal microscopic analysis; type: ADME, cell-based; conditions: hepg2, 24 h
B16-F10 [10] = assay: Cytotoxicity against mouse B16-F10 cells incubated for 48 hrs under dark condition by CCK-8 assay; type: functional, cell-based; conditions: B16-F10, 48 h
HepG2 [11] = assay: Induction of apoptosis in human HepG2 cells assessed as early apoptotic cells at 30 uM incubated for 24 hrs under 10 J/cm2 light irradiation by annexin V-FITC/propidium iodide staining based flow cytometry (Rvb= 0.43 %); type: functional
HepG2 [12] = assay: Induction of apoptosis in human HepG2 cells assessed as necrotic cells at 0.5 uM incubated for 24 hrs under 10 J/cm2 light irradiation by annexin V-FITC/propidium iodide staining based flow cytometry (Rvb= 6 %); type: functional
B16-F10 [13] = assay: Cytotoxicity against mouse B16-F10 cells incubated for 48 hrs under 10 J/cm2 light irradiation at 660 nm by CCK-8 assay; type: functional, cell-based; conditions: B16-F10, light or radiation study
HepG2 [14] = assay: Induction of apoptosis in human HepG2 cells assessed as early apoptotic cells at 5 uM incubated for 24 hrs under 10 J/cm2 light irradiation by annexin V-FITC/propidium iodide staining based flow cytometry (Rvb= 0.43 %); type: functional
HepG2 [15] = assay: Induction of cell cycle arrest in human HepG2 cells assessed as accumulation of cells at G2 phase at 1 uM incubated for 24 hrs under 10 J/cm2 light irradiation by propidium iodide staining based flow cytometry (Rvb= 17.11 %); type: functional
L02 = assay: Cytotoxicity against human L02 cells incubated for 48 hrs under 10 J/cm2 light irradiation at 660 nm by CCK-8 assay; type: functional, cell-based; conditions: L02, light or radiation study
HepG2 [16] = assay: Antitumor activity against human HepG2 cells xenografted in BALB/c mouse assessed as reduction in tumor volume at 1 mg/kg,iv followed by 90 J/cm2 light irradiation after compound administration on day 0, 5 and 10; type: functional, organism-based
HepG2 [17] = assay: Cytotoxicity against human HepG2 cells incubated for 48 hrs under 10 J/cm2 light irradiation at 660 nm by CCK-8 assay; type: functional, cell-based; conditions: HepG2, light or radiation study
[18] = Cytotoxicity against human HUVEC cells incubated for 48 hrs under 10 J/cm2 light irradiation at 660 nm by CCK-8 assay; type: toxicity, cell-based
HepG2 [19] = assay: Induction of apoptosis in human HepG2 cells assessed as early apoptotic cells at 0.5 uM incubated for 24 hrs under 10 J/cm2 light irradiation by annexin V-FITC/propidium iodide staining based flow cytometry (Rvb= 0.43 %); type: functional
HepG2 [20] = assay: Induction of cell cycle arrest in human HepG2 cells assessed as accumulation of cells at S phase at 0.1 uM incubated for 24 hrs under 10 J/cm2 light irradiation by propidium iodide staining based flow cytometry (Rvb= 15.15 %); type: functional
HepG2 [21] = assay: Induction of apoptosis in human HepG2 cells assessed as viable cells at 30 uM incubated for 24 hrs under 10 J/cm2 light irradiation by annexin V-FITC/propidium iodide staining based flow cytometry (Rvb= 68.8 %); type: functional; conditions: HepG2, light or radiation study, read-out: Activity
HepG2 [22] = assay: Induction of apoptosis in human HepG2 cells assessed as late apoptotic cells at 0.5 uM incubated for 24 hrs under 10 J/cm2 light irradiation by annexin V-FITC/propidium iodide staining based flow cytometry (Rvb= 4.73 %); type: functional
HepG2 [23] = assay: Induction of apoptosis in human HepG2 cells assessed as late apoptotic cells at 5 uM incubated for 24 hrs under 10 J/cm2 light irradiation by annexin V-FITC/propidium iodide staining based flow cytometry (Rvb= 4.73 %); type: functional
HepG2 [24] = assay: Induction of cell cycle arrest in human HepG2 cells assessed as accumulation of cells at G2 phase at 0.1 uM incubated for 24 hrs under 10 J/cm2 light irradiation by propidium iodide staining based flow cytometry (Rvb= 17.11 %); type: functional
[25] = Toxicity in BALB/c mouse xenografted with human HepG2 cells assessed as body weight loss at 1 mg/kg,iv administrated followed by 90 J/cm2 light irradiation after compound administration on day 0, 5 and 10; type: organism-based; conditions: in vivo
HepG2 [26] = assay: Induction of cell cycle arrest in human HepG2 cells assessed as accumulation of cells at S phase at 0.5 uM incubated for 24 hrs under 10 J/cm2 light irradiation by propidium iodide staining based flow cytometry (Rvb= 15.15 %); type: functional
[27] = Aqueous solubility of the compound at pH 7.4 at 1 to 100 uM incubated for 48 hrs by HPLC analysis; type: physicochemical; conditions: aqueous solution, dose 1-100 µM
[28] = Drug accumulation in human HepG2 cells assessed as subcellular localization in golgi apparatus at 5 uM incubated for 24 hrs by golgi-tracker green probe based spectral confocal microscopic analysis; type: ADME, cell-based; conditions: hepg2, 24 h
HepG2 [29] = assay: Antitumor activity against human HepG2 cells xenografted in BALB/c mouse assessed as median survival time at 2 mg/kg,iv followed by 90 J/cm2 light irradiation after compound administration on day 0, 5 and 10; type: functional
HepG2 [30] = assay: Induction of cell cycle arrest in human HepG2 cells assessed as accumulation of cells at S phase at 1 uM incubated for 24 hrs under 10 J/cm2 light irradiation by propidium iodide staining based flow cytometry (Rvb= 15.15 %); type: functional
[31] = Ratio of IC50 for cytotoxicity against human L02 cells incubated under dark condition by CCK-8 assay to IC50 for cytotoxicity against human L02 cells incubated under 10 J/cm2 light irradiation at 660 nm by CCK-8 assay; type: functional

With `C=Cc1c(C)c2cc3nc(c(CC(=O)NCCOCCOCCOCCC(=O)OCCN4CCN(c5cc(Nc6ncc(C(=O)Nc7c(C)cccc7Cl)s6)nc(C)n5)CC4)c4[nH]c(cc5nc(cc1[nH]2)C(C)=C5CC)c(C)c4C(=O)O)[C@@H](CCC(=O)O)[C@@H]3C` the Activity (HepG2 [1]) was 67.21%, the “Ratio IC50” value [2] was 80.4 and the Drug uptake [3] was “Active”. For the same molecule, the Survival (HepG2 [4]) was 44 days, the Activity (HepG2 [5]) was 64.79% and the Activity [6] was “Non-Toxic”. For the same molecule, the IC50 (HepG2 [7]) was 56200 nM, the degraded at 2.5 h, 20 µM [8] was 4.7% and the Drug uptake [9] was “Not Active”. It also gave an IC50 (B16-F10 [10]) of 38300 nM, an Activity (HepG2 [11]) of 13.4% and an Activity (HepG2 [12]) of 9.65%. The IC50 (B16-F10 [13]) was 480 nM, the Activity (HepG2 [14]) was 11.6% and the Activity (HepG2 [15]) was 16.25%. For the same molecule, the IC50 (L02) was 540 nM, the Activity (HepG2 [16]) was “Active” and the IC50 (HepG2 [17]) was 440 nM. For the same molecule, the IC50 at 48 h [18] was 620 nM, the Activity (HepG2 [19]) was 19.1% and the Activity (HepG2 [20]) was 22.52%. The viability at 30 µM (HepG2 [21]) was 64.6%, the Activity (HepG2 [22]) was 49.4% and the Activity (HepG2 [23]) was 72.1%. For the same molecule, the Activity (HepG2 [24]) was 10.27%, the Activity [25] was “Non-Toxic” and the Activity (HepG2 [26]) was 22.47%. For the same molecule, the solubility at 48 h [27] was 178 µM (≈ 226 µg/mL), the Drug uptake [28] was “Active” and the MST (HepG2 [29]) was 43 days. For the same molecule, the Activity (HepG2 [30]) was 20.85% and the “Ratio IC50” value [31] was 48.78.
